Key:
Format in all cases: functional
Citrobacter freundii [1] = experiment: Antimicrobial activity against Citrobacter freundii obtained from patient with complicated intra-abdominal infection assessed as percent susceptible isolates by agar dilution method
Klebsiella aerogenes [2] = experiment: Antimicrobial activity against Enterobacter aerogenes obtained from patient with complicated intra-abdominal infection assessed as percent susceptible isolates by agar dilution method
Enterobacter cloacae [3] = experiment: Antimicrobial activity against Enterobacter cloacae obtained from patient with complicated intra-abdominal infection assessed as percent susceptible isolates by agar dilution method
Escherichia coli [4] = experiment: Antimicrobial activity against Escherichia coli obtained from patient with complicated intra-abdominal infection assessed as percent susceptible isolates by agar dilution method
Escherichia coli [5] = experiment: Antimicrobial activity against extended-spectrum beta-lactamase-positive Escherichia coli obtained from patient with complicated intra-abdominal infection assessed as percent susceptible isolates by agar dilution method
Escherichia coli [6] = experiment: Antimicrobial activity against extended-spectrum beta-lactamase-negative Escherichia coli obtained from patient with complicated intra-abdominal infection assessed as percent susceptible isolates by agar dilution method
Klebsiella pneumoniae [7] = experiment: Antimicrobial activity against Klebsiella pneumoniae assessed as percent susceptible isolates by agar dilution method
Klebsiella pneumoniae [8] = experiment: Antimicrobial activity against extended-spectrum beta-lactamase-positive Klebsiella pneumoniae assessed as percent susceptible isolates by agar dilution method
Klebsiella pneumoniae [9] = experiment: Antimicrobial activity against extended-spectrum beta-lactamase-negative Klebsiella pneumoniae assessed as percent susceptible isolates by agar dilution method
Klebsiella oxytoca [10] = experiment: Antimicrobial activity against extended-spectrum beta-lactamase-positive Klebsiella oxytoca assessed as percent susceptible isolates by agar dilution method
Proteus mirabilis [11] = experiment: Antimicrobial activity against extended-spectrum beta-lactamase-positive Proteus mirabilis assessed as percent susceptible isolates by agar dilution method
Serratia marcescens [12] = experiment: Antimicrobial activity against Serratia marcescens assessed as percent susceptible isolates by agar dilution method
Pseudomonas aeruginosa [13] = experiment: Antimicrobial activity against Pseudomonas aeruginosa assessed as percent susceptible isolates by agar dilution method
Pasteurella sp. [14] = experiment: Antimicrobial activity against Pasteurella sp. assessed as percent susceptible isolates by agar dilution method
Pseudomonas fluorescens [15] = experiment: Antimicrobial activity against Pseudomonas fluorescens assessed as percent susceptible isolates by agar dilution method
[16] = system: Stenotrophomonas maltophilia; experiment: Antimicrobial activity against Stenotrophomonas maltophilia assessed as percent susceptible isolates by agar dilution method
Acinetobacter sp. [17] = experiment: Antimicrobial activity against Acinetobacter sp. assessed as percent susceptible isolates by agar dilution method
Enterobacteriaceae = experiment: Antimicrobial activity against Enterobacteriaceae Extended-Spectrum beta-lactamase positive assessed as percent susceptible isolates by agar dilution method
Citrobacter freundii [18] = experiment: Antimicrobial activity against Citrobacter freundii obtained from patient with complicated intra-abdominal infection assessed as percent susceptible isolates by agar dilution method in presence of beta-lactamase inhibitor Tazobactam
Klebsiella aerogenes [19] = experiment: Antimicrobial activity against Enterobacter aerogenes obtained from patient with complicated intra-abdominal infection assessed as percent susceptible isolates by agar dilution method in presence of beta-lactamase inhibitor Tazobactam
Enterobacter cloacae [20] = experiment: Antimicrobial activity against Enterobacter cloacae obtained from patient with complicated intra-abdominal infection assessed as percent susceptible isolates by agar dilution method in presence of beta-lactamase inhibitor Tazobactam
Escherichia coli [21] = experiment: Antimicrobial activity against Escherichia coli obtained from patient with complicated intra-abdominal infection assessed as percent susceptible isolates by agar dilution method in presence of beta-lactamase inhibitor Tazobactam
Escherichia coli [22] = experiment: Antimicrobial activity against extended-spectrum beta-lactamase-positive Escherichia coli obtained from patient with complicated intra-abdominal infection assessed as percent susceptible isolates by agar dilution method in presence of beta-lactamase inhibitor Tazobactam
Escherichia coli [23] = experiment: Antimicrobial activity against extended-spectrum beta-lactamase-negative Escherichia coli obtained from patient with complicated intra-abdominal infection assessed as percent susceptible isolates by agar dilution method in presence of beta-lactamase inhibitor Tazobactam
Klebsiella pneumoniae [24] = experiment: Antimicrobial activity against Klebsiella pneumoniae assessed as percent susceptible isolates by agar dilution method in presence of beta-lactamase inhibitor Tazobactam
Klebsiella pneumoniae [25] = experiment: Antimicrobial activity against extended-spectrum beta-lactamase-positive Klebsiella pneumoniae assessed as percent susceptible isolates by agar dilution method in presence of beta-lactamase inhibitor Tazobactam
Klebsiella pneumoniae [26] = experiment: Antimicrobial activity against extended-spectrum beta-lactamase-negative Klebsiella pneumoniae assessed as percent susceptible isolates by agar dilution method in presence of beta-lactamase inhibitor Tazobactam
Klebsiella oxytoca [27] = experiment: Antimicrobial activity against extended-spectrum beta-lactamase-positive Klebsiella oxytoca assessed as percent susceptible isolates be agar dilution method in presence of beta-lactamase inhibitor Tazobactam
Proteus mirabilis [28] = experiment: Antimicrobial activity against extended-spectrum beta-lactamase-positive Proteus mirabilis assessed as percent susceptible isolates by agar dilution method in presence of beta-lactamase inhibitor Tazobactam
Pseudomonas aeruginosa [29] = experiment: Antimicrobial activity against Pseudomonas aeruginosa assessed as percent susceptible isolates by agar dilution method in presence of beta-lactamase inhibitor Tazobactam
Serratia marcescens [30] = experiment: Antimicrobial activity against Serratia marcescens assessed as percent susceptible isolates by agar dilution method in presence of beta-lactamase inhibitor Tazobactam
Pasteurella sp. [31] = experiment: Antimicrobial activity against Pasteurella sp. assessed as percent susceptible isolates by agar dilution method in presence of beta-lactamase inhibitor Tazobactam
Pseudomonas fluorescens [32] = experiment: Antimicrobial activity against Pseudomonas fluorescens assessed as percent susceptible isolates by agar dilution method in presence of beta-lactamase inhibitor Tazobactam
[33] = system: Stenotrophomonas maltophilia; experiment: Antimicrobial activity against Stenotrophomonas maltophilia assessed as percent susceptible isolates by agar dilution method in presence of beta-lactamase inhibitor Tazobactam
Acinetobacter sp. [34] = experiment: Antimicrobial activity against Acinetobacter sp. assessed as percent susceptible isolates by agar dilution method in presence of beta-lactamase inhibitor Tazobactam

| Structure (SMILES) | Activity (Citrobacter freundii [1]) | Activity (Klebsiella aerogenes [2]) | Activity (Enterobacter cloacae [3]) | Activity (Escherichia coli [4]) | Activity (Escherichia coli [5]) | Activity (Escherichia coli [6]) | Activity (Klebsiella pneumoniae [7]) | Activity (Klebsiella pneumoniae [8]) | Activity (Klebsiella pneumoniae [9]) | Activity (Klebsiella oxytoca [10]) | Activity (Proteus mirabilis [11]) | Activity (Serratia marcescens [12]) | Activity (Pseudomonas aeruginosa [13]) | Activity (Pasteurella sp. [14]) | Activity (Pseudomonas fluorescens [15]) | Activity [16] | Activity (Acinetobacter sp. [17]) | other results |
| --- | --- | --- | --- | --- | --- | --- | --- | --- | --- | --- | --- | --- | --- | --- | --- | --- | --- | --- |
| CO[C@@]1(NC(=O)Cc2cccs2)C(=O)N2C(C(=O)O)=C(COC(N)=O)CS[C@@H]21 [CEFOXITIN] | 17% | 8% | 1% | 93% | 71% | 94% | 84% | 66% | 87% | 96% | 100% | 26% | – | – | – | – | – | – |
| C[C@@H](O)[C@H]1C(=O)N2C(C(=O)O)=C(SCCNC=N)C[C@H]12 [IMIPENEM ANHYDROUS] | 100% | 100% | 100% | 100% | 100% | 100% | 99% | 94% | 100% | 100% | 93% | 100% | 78% | 69% | 69% | 69% | 69% | – |
| CO/N=C(\C(=O)N[C@@H]1C(=O)N2C(C(=O)[O-])=C(C[N+]3(C)CCCC3)CS[C@H]12)c1csc(N)n1 | 94% | 100% | – | – | 48% | – | 91% | 47% | 100% | 96% | 100% | 100% | 72% | 23% | 23% | 23% | 23% | – |
| CC(C)(O/N=C(\C(=O)N[C@@H]1C(=O)N2C(C(=O)[O-])=C(C[n+]3ccccc3)CS[C@H]12)c1csc(N)n1)C(=O)O [CEFTAZIDIME] | 72% | 63% | 66% | 96% | 52% | 98% | 86% | 19% | 100% | 96% | 94% | 100% | 76% | 32% | 32% | 32% | 32% | Activity (Enterobacteriaceae): 31% |
| C[C@H]1COc2c(N3CCN(C)CC3)c(F)cc3c(=O)c(C(=O)O)cn1c23.C[C@H]1COc2c(N3CCN(C)CC3)c(F)cc3c(=O)c(C(=O)O)cn1c23.O [LEVOFLOXACIN] | 78% | 96% | 88% | 81% | 33% | 83% | 84% | 28% | 96% | 100% | 100% | 93% | 72% | 47% | 47% | 47% | 47% | – |
| CO/N=C(\C(=O)N[C@@H]1C(=O)N2C(C(=O)O)=C(COC(C)=O)CS[C@H]12)c1csc(N)n1 [CEFOTAXIME] | 67% | 79% | 62% | 96% | 38% | 99% | 85% | 19% | 99% | 96% | 100% | 100% | 9% | 8% | 8% | 8% | 8% | Activity (Enterobacteriaceae): 6% |
| CO/N=C(\C(=O)N[C@@H]1C(=O)N2C(C(=O)O)=C(CSc3nc(=O)c(O)nn3C)CS[C@H]12)c1csc(N)n1 [CEFTRIAXONE] | 67% | 79% | 64% | 96% | 38% | 98% | 85% | 19% | 99% | 89% | 100% | 100% | 17% | 15% | 15% | 15% | 15% | Activity (Enterobacteriaceae): 7% |
| C[C@@H](O)[C@H]1C(=O)N2C(C(=O)O)=C(S[C@@H]3CN[C@H](C(=O)Nc4cccc(C(=O)O)c4)C3)[C@H](C)[C@H]12 | 94% | 100% | 92% | 99% | 100% | 99% | 96% | 78% | 100% | 100% | 100% | 100% | – | – | – | – | – | – |
| CCN1CCN(C(=O)N[C@@H](C(=O)N[C@@H]2C(=O)N3[C@@H]2SC(C)(C)[C@@H]3C(=O)O)c2ccccc2)C(=O)C1=O [PIPERACILLIN] | – | – | – | – | – | – | – | – | – | – | – | – | – | – | – | – | – | Activity (Citrobacter freundii [18]): 72%; Activity (Klebsiella aerogenes [19]): 88%; Activity (Enterobacter cloacae [20]): 69%; Activity (Escherichia coli [21]): 96%; Activity (Escherichia coli [22]): 62%; Activity (Escherichia coli [23]): 98%; Activity (Klebsiella pneumoniae [24]): 85%; Activity (Klebsiella pneumoniae [25]): 28%; Activity (Klebsiella pneumoniae [26]): 97%; Activity (Klebsiella oxytoca [27]): 89%; Activity (Proteus mirabilis [28]): 100%; Activity (Pseudomonas aeruginosa [29]): 83%; Activity (Serratia marcescens [30]): 100%; Activity (Pasteurella sp. [31]): 23%; Activity (Pseudomonas fluorescens [32]): 23%; Activity [33]: 23%; Activity (Acinetobacter sp. [34]): 23% |
| NCC[C@H](O)C(=O)N[C@@H]1C[C@H](N)[C@@H](O[C@H]2O[C@H](CN)[C@@H](O)[C@H](O)[C@H]2O)[C@H](O)[C@H]1O[C@H]1O[C@H](CO)[C@@H](O)[C@H](N)[C@H]1O [AMIKACIN] | 100% | 100% | 99% | 98% | 71% | 100% | 95% | 69% | 100% | 100% | 100% | 100% | 96% | 31% | 31% | 31% | 31% | – |
| O=C(O)c1cn(C2CC2)c2cc(N3CCNCC3)c(F)cc2c1=O [CIPROFLOXACIN] | 72% | 96% | – | – | 33% | 82% | 80% | 19% | – | 96% | 97% | 93% | – | 15% | 15% | 15% | 15% | – |
